In ChEMBL document CHEMBL4613308, “Screen of Unfocused Libraries Identified Compounds with Direct or Synergistic Antibacterial Activity” (ACS Med Chem Lett, 2020):
Values after ≈ are worked out from the molar mass of the structure shown.

Tests used:
Acinetobacter baumannii [1] = assay: Synergistic antibacterial activity against multidrug-resistant Acinetobacter baumannii N50 assessed as fractional inhibitory concentration index in presence of colistin by checkerboard assay; type: functional
Klebsiella pneumoniae [2] = assay: Antibacterial activity against Klebsiella pneumoniae ATCC 13833 assessed as bacterial growth inhibition by agar diffusion assay; type: functional
Acinetobacter baumannii [3] = assay: Synergistic antibacterial activity against Acinetobacter baumannii ATCC 17978 assessed as fractional inhibitory concentration index in presence of colistin by Checkerboard assay; type: functional
Pseudomonas aeruginosa [4] = assay: Synergistic antibacterial activity against Pseudomonas aeruginosa ATCC 27853 in presence of 0.5 times MIC of colistin by microdilution broth method; type: functional
Escherichia coli [5] = assay: Potentiation of colistin-induced antibacterial activity against Escherichia coli CCUG assessed as fold reduction in colistin MIC in by microdilution broth method relative to colistin MIC; type: functional
Klebsiella pneumoniae [6] = assay: Synergistic antibacterial activity against Klebsiella pneumoniae ATCC 13833 in presence of 0.5 times MIC of colistin by microdilution broth method; type: functional
Acinetobacter baumannii [7] = assay: Synergistic antibacterial activity against multidrug-resistant Acinetobacter baumannii N50 in presence of 2 ug/ml colistin by microdilution broth method; type: functional
Pseudomonas aeruginosa [8] = assay: Potentiation of colistin-induced antibacterial activity against Pseudomonas aeruginosa ATCC 27853 assessed as fold reduction in colistin MIC by microdilution broth method relative to colistin MIC; type: functional
Acinetobacter baumannii [9] = assay: Antibacterial activity against Acinetobacter baumannii ATCC 17978 assessed as bacterial growth inhibition by agar diffusion assay; type: functional
Escherichia coli [10] = assay: Synergistic antibacterial activity against Escherichia coli CCUG in presence of 0.5 times MIC of colistin by microdilution broth method; type: functional
Acinetobacter baumannii [11] = assay: Synergistic antibacterial activity against Acinetobacter baumannii ATCC 17978 in presence of 0.5 times MIC of colistin by microdilution broth method; type: functional
Klebsiella pneumoniae [12] = assay: Potentiation of colistin-induced antibacterial activity against Klebsiella pneumoniae ATCC 13833 assessed as fold reduction in colistin MIC by microdilution broth method relative to colistin MIC; type: functional
Escherichia coli [13] = assay: Antibacterial activity against Escherichia coli CCUG assessed as bacterial growth inhibition by agar diffusion assay; type: functional
Pseudomonas aeruginosa [14] = assay: Synergistic antibacterial activity against Pseudomonas aeruginosa ATCC 27853 assessed as fractional inhibitory concentration index in presence of colistin by Checkerboard assay; type: functional
Pseudomonas aeruginosa [15] = assay: Antibacterial activity against Pseudomonas aeruginosa ATCC 27853 assessed as bacterial growth inhibition by agar diffusion assay; type: functional
Acinetobacter baumannii [16] = assay: Potentiation of colistin-induced antibacterial activity against Acinetobacter baumannii ATCC 17978 assessed as fold reduction in colistin MIC by microdilution broth method relative to colistin MIC; type: functional
Klebsiella pneumoniae [17] = assay: Synergistic antibacterial activity against colistin-resistant Klebsiella pneumoniae SI-081R clinical isolate in presence of 2 ug/ml colistin by microdilution broth method (reference value: 256 ug/ml); type: functional
HeLa = assay: Cytotoxicity against human HeLa cells assessed as reduction in cell viability assay by CellTox-Green assay; type: cell-based
Klebsiella pneumoniae [18] = assay: Synergistic antibacterial activity against colistin-resistant Klebsiella pneumoniae SI-004Bo clinical isolate in presence of 2 ug/ml colistin by microdilution broth method (reference value: 64 ug/ml); type: functional

## CCCCCc1cc(O)cc(OCCCCCCCCCCC(=O)NCCO)c1
Acinetobacter baumannii [1]
  fractional inhibitory concentration index (FICI): 0.062
Klebsiella pneumoniae [2]
  MIC: > 512 µg/mL
Acinetobacter baumannii [3]
  fractional inhibitory concentration index (FICI): 0.29
Pseudomonas aeruginosa [4]
  MIC: 2 µg/mL
Escherichia coli [5]
  log2FC: 6
Klebsiella pneumoniae [6]
  MIC: 4 µg/mL
Acinetobacter baumannii [7]
  MIC: 2 µg/mL
Pseudomonas aeruginosa [8]
  log2FC: 8
Acinetobacter baumannii [9]
  MIC: > 512 µg/mL
Escherichia coli [10]
  MIC: 8 µg/mL
Acinetobacter baumannii [11]
  MIC: 2 µg/mL
Klebsiella pneumoniae [12]
  log2FC: 7
Escherichia coli [13]
  MIC: > 512 µg/mL
Pseudomonas aeruginosa [14]
  fractional inhibitory concentration index (FICI): 0.41
Pseudomonas aeruginosa [15]
  MIC: > 512 µg/mL
Acinetobacter baumannii [16]
  log2FC: 8
Klebsiella pneumoniae [17]
  MIC: > 64 µg/mL
HeLa
  IC50: 25 µg/mL (≈ 61.3 µM)
Klebsiella pneumoniae [18]
  MIC: > 64 µg/mL
